Results: patent publication US10647675B2 (priority 2015, dated 2020)
Converted amounts (≈) assume the structure as drawn.

Key:
[1] = tested on: Trichophyton mentagrophytes SM-110; assay: Antifungal activity evaluation test: minimum inhibitory concentration (MIC), broth dilution by reference to CLSI M38-A2; type: cell-based; settings: SM110, read-out: MIC (T. menta.)
Procedure: (§1) The minimum inhibitory concentration (MIC) for Trichophyton mentagrophytes and Trichophyton rubrum was measured by the following procedure by reference to Clinical and Laboratory standards Institute (CLSI) guidelines M38-A2. Reference document for the measurement method: National Committee for a Clinical Laboratory Standards. Reference method for broth dilution antifungal susceptibility testing of filamentous fungi. Approved standard Second edition M38-A2. Wayne, Pa.: National Committee for a Clinical Laboratory Standards, 2008. • Test compound solution: A test compound was dissolved in dimethyl sulfoxide (DMSO) at a concentration of 2.5 mg/mL to give a stock solution. The stock solution was appropriately diluted with DMSO to prepare a 2-fold dilution series. As control compounds, terbinafine and amorolfine were used. • Test strains: Trichophyton mentagrophytes SM-110 and Trichophyton rubrum KD-1130 were used. • Preparation of fungal culture to be inoculated: The above-mentioned test strain was suspended in 0.05% Tween 80-containing saline, and the fungi of the genus Trichophyton were prepared to a fungal concentration of 1×10^6 cells/mL by using a hemocytometer. Then, using MOPS-buffered RPMI 1640 medium (pH 7.0) as a test medium, a fungal culture of the fungi of the genus Trichophyton was diluted 250-fold (4×10^3 cells/mL) to give a fungal culture for inoculation. • MIC measurement of genus Trichophyton fungi: MOPS-buffered RPMI 1640 medium (pH 7.0) was dispensed by 100 μL to given wells of a 96 well U-bottom microplate. Then, the test compound solution (2 μL) was added, the mixture was sufficiently stirred by a plate mixer. The fungal culture (100 μL) was inoculated and the mixture was cultured at 35° C. for 4 days (final fungal concentration: 2×10^3 cells/mL). After the culture, the minimum drug concentration of a well in which a growth inhibitory action of not less than 80% was visually observed as compared to a growth control was taken as a minimum inhibitory concentration (MIC: μg/mL).
(§2) The abbreviations in the Tables mean the following fungi and compounds. • T. menta.: Trichophyton mentagrophytes • T. rubrum: Trichophyton rubrum • TBF: terbinafine • AMF: amorolfine

[2] = tested on: Trichophyton rubrum KD-1130; assay: as above; type: cell-based; settings: KD1130, read-out: MIC (T. rubrum)
Procedure: as §1, §2

Row | Structure (SMILES) | MIC [1] [µg/mL] | MIC [2] [µg/mL]
1 | COc1cc(F)c(F)cc1-c1cccnc1Oc1ccc(C(F)F)nc1 [I-76, 3-(4,5-difluoro-2-methoxyphenyl)-2-{[6-(difluoromethyl)pyridin-3-yl]oxy}pyridine] | ≤ 0.1 | ≤ 0.1
2 | COc1ncccc1-c1cccnc1Oc1ccc(C(C)(F)F)cc1 [I-298] | ≤ 0.1 | ≤ 0.1
3 | CCOC(=O)c1ccc(Oc2ncccc2-c2cnccc2Cl)cc1 [I-414] | ≤ 0.1 | ≤ 0.1
4 | COc1ccccc1-c1cccnc1Oc1cnc2c(c1)CCCC2O (stereo not shown) [I-140, 3-{[3-(2-methoxyphenyl)pyridin-2-yl]oxy}-5,6,7,8-tetrahydroquinolin-8-ol] | 0.2 to 0.78 (≈ 0.574 to 2.24 µM) | 0.2 to 0.78 (≈ 0.574 to 2.24 µM)
5 | COc1ncncc1-c1cccnc1Oc1ccc(C(F)F)c(C)c1 [I-457] | ≤ 0.1 | ≤ 0.1
6 | COc1ccncc1-c1cccnc1Oc1ccc(Br)cc1 [I-234, 2-(4-bromophenoxy)-4′-methoxy-3,3′-bipyridine] | ≤ 0.1 | ≤ 0.1
7 | COc1cc(F)ccc1-c1cccnc1Oc1ccc(C(F)(F)F)nc1 [I-12, 3-(4-fluoro-2-methoxyphenyl)-2-{[6-(trifluoromethyl)pyridin-3-yl]oxy}pyridine] | ≤ 0.1 | ≤ 0.1
8 | COc1ccccc1-c1cccnc1Oc1ccc(OCc2cccnc2)nc1 [I-174, 3-(2-methoxyphenyl)pyridin-2-{[6-(pyridin-3-ylmethoxy)pyridin-3-yl]oxy}pyridine] | ≤ 0.1 | ≤ 0.1
9 | COc1ccccc1-c1cccnc1Oc1ccc(C(F)(F)CN(C)C)nc1 [I-147, 2,2-difluoro-2-(5-{[3-(2-methoxyphenyl)pyridin-2-yl]oxy}-2-yl)-N,N-dimethylethanamine] | ≤ 0.1 | 0.2 to 0.78 (≈ 0.519 to 2.02 µM)
10 | COCC(F)(F)c1ccc(Oc2ncccc2-c2cccnc2OC)cn1 [I-348, 2-{[6-(1,1-difluoro-2-methoxyethyl)pyridin-3-yl]oxy}-2′-methoxy-3,3′-bipyridine] | 0.2 to 0.78 (≈ 0.536 to 2.09 µM) | 0.2 to 0.78 (≈ 0.536 to 2.09 µM)
11 | COCCN(C)c1ncc(Oc2ncccc2-c2ccc(F)cc2OC)cn1 [I-188, 5-{[3-(4-fluoro-2-methoxyphenyl)pyridin-2-yl]oxy}-N-(2-methoxyethyl)-N-methylpyrimidin-2-amine] | ≤ 0.1 | ≤ 0.1
12 | FC(F)(F)c1ccc(Oc2ncccc2-c2cccn3ccnc23)cc1 [I-229, 8-{2-[4-(trifluoromethyl)phenoxy]pyridin-3-yl}imidazo[1,2-a]pyridine] | 0.2 to 0.78 (≈ 0.563 to 2.2 µM) | 1.56 to 6.25 (≈ 4.39 to 17.6 µM)
13 | CCN(C)c1ncc(Oc2ncccc2-c2ccc(F)cc2OC)cn1 [I-184, N-ethyl-5-{[3-(4-fluoro-2-methoxyphenyl)pyridin-2-yl]oxy}-N-methylpyrimidin-2-amine] | ≤ 0.1 | ≤ 0.1
14 | COC(=O)CN(C)c1ncc(Oc2ncccc2-c2ccc(F)cc2OC)cn1 [I-192, methyl 2-[(5-{[3-(4-fluoro-2-methoxyphenyl)pyridin-2-yl]oxy}-pyrimidin-2-yl)(methyl)amino]acetate] | ≤ 0.1 | ≤ 0.1
15 | Cn1ncc(Cl)c1-c1cccnc1Oc1ccc(C(F)(F)F)cc1 [I-222, 3-(4-chloro-1-methyl-1H-pyrazol-5-yl)-2-[4-(trifluoromethyl)phenoxy]pyridine] | ≤ 0.1 | ≤ 0.1
16 | Cc1cnn2c(-c3cccnc3Oc3ccc(C(F)(F)F)nc3)cccc12 [I-53, 3-methyl-7-(2-{[6-(trifluoromethyl)pyridin-3-yl]oxy}pyridin-3-yl)-pyrazolo[1,5-a]pyridine] | 0.2 to 0.78 (≈ 0.54 to 2.11 µM) | ≤ 0.1
17 | COc1ncccc1-c1cccnc1Oc1ccc(C(F)(F)CO)nc1 [I-347] | 1.56 to 6.25 (≈ 4.34 to 17.4 µM) | 1.56 to 6.25 (≈ 4.34 to 17.4 µM)
18 | COc1ccccc1-c1cccnc1Oc1ccc(Cl)cc1 [I-199, 2-(4-chlorophenoxy)-3-(2-methoxyphenyl)pyridine] | ≤ 0.1 | ≤ 0.1
19 | COc1ncc(F)cc1-c1cccnc1Oc1ccc(C(F)(F)F)nc1 [I-32, 5-fluoro-2-methoxy-2′-{[6-(trifluoromethyl)pyridin-3-yl]oxy}-3,3′-bipyridine] | 0.2 to 0.78 (≈ 0.548 to 2.14 µM) | ≤ 0.1
20 | CCc1ccc(Oc2ncccc2-c2cccc3ccnn23)cc1 [I-292, 7-[2-(4-ethylphenoxy)pyridin-3-yl]pyrazolo[1,5-a]pyridine] | ≤ 0.1 | ≤ 0.1
21 | CCc1ccc(Oc2ncccc2-c2cncnc2OC)cc1 [I-282, 5-[2-(4-ethylphenoxy)pyridin-3-yl]-4-methoxypyrimidine] | ≤ 0.1 | ≤ 0.1

Row | Structure (SMILES) | MIC [1] [µg/mL] | MIC [2] [µg/mL]
22 | CC(F)(F)c1ccc(Oc2ncccc2-c2cccnc2-n2cccn2)cn1 [I-107, 2-{[6-(1,1-difluoroethyl)pyridin-3-yl]oxy}-2′-(1H-pyrazol-1-yl)-3,3′-bipyridine] | 1.56 to 6.25 (≈ 4.11 to 16.5 µM) | 1.56 to 6.25 (≈ 4.11 to 16.5 µM)
23 | FC(F)(F)c1ccc(Oc2ncccc2-c2ccccc2OCC2CC2)cn1 [I-57, 3-[2-(cyclopropylmethoxy)phenyl]-2-{[6-(trifluoromethyl)pyridin-3-yl]oxy}pryidine] | 0.2 to 0.78 (≈ 0.518 to 2.02 µM) | 0.2 to 0.78 (≈ 0.518 to 2.02 µM)
24 | Cc1cc(-c2ccc(Oc3ncccc3-c3cnccc3C)cc2)on1 [I-425] | ≤ 0.1 | ≤ 0.1
25 | FC(F)(F)c1ccc(Oc2ncccc2-c2ccccc2OCC2CCC2)cn1 [I-55, 3-[2-(cyclobutylmethoxy)phenyl]-2-{[6-(trifluoromethyl)pyridin-3-yl]oxy}pyridine] | 0.2 to 0.78 (≈ 0.5 to 1.95 µM) | 0.2 to 0.78 (≈ 0.5 to 1.95 µM)
26 | COc1ccncc1-c1cccnc1Oc1ccc2c(c1)CCC2 [I-266, 2-[(2,3-dihydro-1H-inden-5-yl)oxy]-4′-methoxy-3,3′-bipyridine] | ≤ 0.1 | ≤ 0.1
27 | COc1ncccc1-c1cccnc1Oc1ccc(CCn2cccn2)cc1 [I-400, 2-{4-[2-(1H-pyrazol-1-yl)ethyl]phenoxy}-2′-methoxy-3,3′-bipyridine] | ≤ 0.1 | ≤ 0.1
28 | COc1ccncc1-c1cc(Cl)cnc1Oc1ccc(C(F)(F)F)cc1 [I-217, 5-chloro-4′-methoxy-2-[4-(trifluoromethyl)phenoxy]-3,3′-bipyridine] | 1.56 to 6.25 (≈ 4.1 to 16.4 µM) | 1.56 to 6.25 (≈ 4.1 to 16.4 µM)
29 | COc1ccncc1-c1cc(F)cnc1Oc1ccc(C(F)(F)F)cc1 [I-216, 5-fluoro-4′-methoxy-2-[4-(trifluoromethyl)phenoxy]-3,3′-bipyridine] | ≤ 0.1 | ≤ 0.1
30 | CCCc1ccc(Oc2ncccc2-c2cnccc2OC)cc1 [I-254, 4′-methoxy-2-(4-propylphenoxy)-3,3′-bipyridine] | ≤ 0.1 | ≤ 0.1
31 | CCc1ccc(Oc2ncccc2-c2cnccc2Cl)cc1 [I-290, 4′-chloro-2-(4-ethylphenoxy)-3,3′-bipyridine] | ≤ 0.1 | ≤ 0.1
32 | Nc1ccccc1-c1cccnc1Oc1ccc(C(F)(F)F)nc1 [I-61, 2-(2-{[6-(trifluoromethyl)pyridin-3-yl]oxy}pyridin-3-yl)-aniline] | 1.56 to 6.25 (≈ 4.71 to 18.9 µM) | 1.56 to 6.25 (≈ 4.71 to 18.9 µM)
33 | COc1c(Cl)cncc1-c1cncnc1Oc1ccc(C(F)(F)F)cc1 [I-331, 5-(5-chloro-4-methoxypyridin-3-yl)-4-[4-(trifluoromethyl)phenoxy]pyrimidine] | ≤ 0.1 | ≤ 0.1
34 | FC(F)(F)c1ccc(Oc2ncccc2-c2cccc3ncnn23)cn1 [I-45, 5-(2-{[6-(trifluoromethyl)pyridin-3-yl]oxy}pyridin-3-yl)-[1,2,4]triazolo[1,5-a]pryidine] | 1.56 to 6.25 (≈ 4.37 to 17.5 µM) | 0.2 to 0.78 (≈ 0.56 to 2.18 µM)
35 | CCc1ccc(Oc2ncccc2-c2cccc3c2OCC3)cn1 [I-125] | ≤ 0.1 | 0.2 to 0.78 (≈ 0.628 to 2.45 µM)
36 | COc1ncccc1-c1cccnc1Oc1ccc2c(c1)CCC2 [I-270, 2-[(2,3-dihydro-1H-inden-5-yl)oxy]-2′-methoxy-3,3′-bipyridine] | ≤ 0.1 | ≤ 0.1
37 | COc1cc(F)ccc1-c1cccnc1Oc1cnc(N(C)Cc2cocn2)nc1 [I-193, 5-{[3-(4-fluoro-2-methoxyphenyl)pyridin-2-yl]oxy}-N-methyl-N-(oxazol-4-ylmethyl)pyrimidin-2-amine] | ≤ 0.1 | ≤ 0.1
38 | CCc1ccc(Oc2ncccc2-c2cnccc2OC)cc1C [I-263, 2-(4-ethyl-3-methylphenoxy)-4′-methoxy-3,3′-bipyridine] | ≤ 0.1 | ≤ 0.1
39 | COc1c(Cl)cncc1-c1cccnc1Oc1ccc(C(C)(F)F)nc1 [I-100, 5′-chloro-2-{[6-(1,1-difluoroethyl)pyridin-3-yl]oxy}-4′-methoxy-3,3′-bipyridine] | ≤ 0.1 | ≤ 0.1
40 | COc1ncccc1-c1nccnc1Oc1ccc2c(c1)CCCC2 [I-316, 2-(2-methoxypyridin-3-yl)-3-[(5,6,7,8-tetrahydronaphthalen-2-yl)oxy]pyrazine] | ≤ 0.1 | ≤ 0.1
41 | Cc1cc(Oc2ncccc2-c2cccc3ccnn23)cnc1C(F)(F)F [I-461] | ≤ 0.1 | ≤ 0.1
